We go through one compound from paper PMC10215143, “D- and N-Methyl Amino Acids for Modulating the Therapeutic Properties of Antimicrobial Peptides and Lipopeptides” (Antibiotics, 2023).

Converted amounts (≈) assume the structure as drawn. Where a SMILES comes first, the peptide text is derived from it. [ ]: non-standard residue; d: D form. The star is where a group is joined. Decanoyl = CCCCCCCCCC(=O)*

One data set concerns Gram (−) bacteria. The protocol: (§1) The MIC against bacterial strains was determined by the modified broth microtiter dilution method, following the procedures proposed by R.E.W. Hancock Laboratory for testing antimicrobial peptides. The target strains Escherichia coli ATCC 35218, Pseudomonas aeruginosa ATCC 27853, Enterococcus faecalis ATCC 29212, and Staphylococcus aureus ATCC 25923 belong to the American Type Culture Collection (ATCC). The Methicillin-Resistant Staphylococcus aureus BSF FBCB1313 strain (MRSA) was provided by the Clinical Bacteriology Section of FBCB-UNL. All strains were activated by culture for 24 h at 37 °C in Mueller-Hinton Broth (MHB) (Biokar Diagnostics, Cedex, France). Each inoculum was taken and adjusted to a cellular concentration of 5 × 10^5 colony-forming units (CFU)/mL in diluted MHB. All the peptides were dissolved in bovine serum albumin buffer with the addition of 0.01% acetic acid; 100 µL of each inoculum was added to 11 µL of peptide solution in serial 2-fold dilutions and were incubated for 18–24 h at 37 °C. The MIC was the lowest peptide concentration that inhibited visible growth of each bacterial strain. The test was conducted in triplicate.
(§2) The TI is defined as the relationship between the concentration that caused 50% of hemolysis (HC50) or a 50% reduction in HeLa cell viability and the MIC. Thus, higher TI values indicate greater antimicrobial specificity. […] The average MIC for each peptide against different microorganism groups was used to calculate the TI value.

In the next data set the test system is Gram (+) bacteria. The protocol: as §1, §2
The next data set concerns E. coli ATCC 35218. The format is cell-based, Escherichia coli. Particulars: ATCC 35218, 24 h. How it is done: (§3) The test was conducted in triplicate.
A further data set relates to S. aureus ATCC 25923. The format is cell-based, Staphylococcus aureus. Particulars: S. aureus ATCC 25923. How it is done: as §3
The test system of another data set is trypsin. Particulars: after 7 h of treatment.
The test system of the next data set is Human erythrocytes. Put plainly: Hemolysis assay. In kind it is cell-based. Particulars: human erythrocytes 0.4% (v/v), 37 °C, 60 min, 6.25 to 400 µM. How it is done:
Hemolytic activity was determined using red blood cells and the hemoglobin released was measured at 405 nm. The percentage of hemolysis corresponding to the synthetic compounds is shown in Figure 1 while the HC50 values are provided in Table 3. […] Substitutions by N-methyl and D-amino acids reduced the hemolytic activity of the peptides and lipopeptides. […] For all the peptides and most of the lipopeptides, the HC50 values exceeded 400 μM. Indeed, the HC50 values were lower only for C10:0-A2(9-NMeLys) and C10:0-A2, which were around 300 and 200 μM, respectively.
Erythrocyte lysis was determined using the following previously optimized protocols. Human erythrocytes from a healthy voluntary donor were isolated by centrifugation (3000 rpm for 10 min) after washing three times with Physiological Solution (PS). Erythrocyte solutions were prepared at a concentration of 0.4% (v/v) in PS. Test tubes containing 200 µL of erythrocyte solution were incubated at 37 °C for 60 min with 200 µL of peptide solution at concentrations ranging from 6.25 to 400 µM. After centrifugation at 3000 rpm for 5 min, supernatant absorbance was measured at 405 nm. Lysis induced by 1% Triton X-100 was taken as a 100% reference value.

The test system of the next data set is C. tropicalis DBFIQ 3. The format is cell-based, Candida tropicalis. Particulars: DBFIQ 3, 24 h. The protocol: (§4) Each inoculum was taken and the cellular concentration was adjusted to 2 × 10^3 CFU/mL in Sabouraud Dextrose Broth (SDB) (Biokar Diagnostics, Cedex, France). Next, 50 µL of these inocula was added to 50 µL of peptide solution in serial 2-fold dilutions. […] […] The test was conducted in triplicate.

Another data set has as its system Yeast. The protocol: Each inoculum was taken and the cellular concentration was adjusted to 2 × 10^3 CFU/mL in Sabouraud Dextrose Broth (SDB) (Biokar Diagnostics, Cedex, France). Next, 50 µL of these inocula was added to 50 µL of peptide solution in serial 2-fold dilutions. […] The MIC was considered the lowest peptide concentration that inhibited visible growth of each yeast strain. The test was conducted in triplicate.
as §2

For another data set, the system named is E. faecalis ATCC 29212. In kind it is cell-based, Enterococcus faecalis. Particulars: E. faecalis ATCC 29212. The protocol:
as §3

The subject of data set [1] is S. aureus RM * SA1 (Methicillin-resistant Staphylococcus aureus). The note with it: S. aureus RM * SA1 (MRSA).
The next data set has as its system C. albicans PEEC 2. The format is cell-based, Candida albicans. Particulars: PEEC 2, 24 h. The protocol:
as §4

A further data set concerns P. aeruginosa ATCC 27853. In kind it is cell-based, Pseudomonas aeruginosa. The note with it: ATCC 27853, 24 h. The protocol:
as §3

The test system of the next data set is HeLa cells. The note with it: 24 h. How it is done:
We assessed the cytotoxicity of the compounds synthesized using HeLa cells.
The 3–4,5-dimethylthiazol-2,5-biphenyl tetrazolium bromide (MTT) cell viability assay was used to assess the cytotoxic activity of synthetic compounds against the human HeLa line. HeLa cells were seeded in 96-well plates at 1 × 10^5 cells/well, in which the peptide solution was added at different concentrations (3.125–400 μM) for 24 h of incubation. Next, MTT reagent (Sigma-Aldrich, St. Louis, MO, USA) was added, and the cells were incubated for 2 h. Then, 100 μL of dimethylsulfoxide (DMSO) was added to each well to dissolve formazan crystals, and the plates were read at 595 nm.

[2] abbreviates: first value of the cell, a single value holds for HC50 and IC50 (400 µM used).

Description for chymotrypsin: The enzymatic stability of the peptides and lipopeptides was determined by measuring residual antimicrobial activity using the agar diffusion method [42]. To this end, 60 µL of the peptide (treated and untreated) in phosphate buffer (0.1 mM pH: 5.5) was added to a 7 mm well on an agar plate previously seeded with 1 mL of a fresh culture of S. aureus ATCC 25923. The plates were incubated for between 18 and 24 h at 37 °C, and then the inhibition halo diameter was measured. The test was conducted in duplicate.

As usually defined, the MIC is the lowest concentration found to suppress growth. Read a low MIC as inhibition by little substance. By IC50 is commonly meant the concentration that inhibits the measured activity by half. High values mean lower potency, low ones higher potency. Take `CCCCCCCCCC(=O)N[C@H](C(=O)N[C@H](CCCCN)C(=O)N[C@@H](CCC(N)=O)C(=O)N[C@H](C(=O)N[C@H](CCCCN)C(=O)N[C@H](CCCCN)C(=O)N[C@@H](CC(C)C)C(=O)N[C@@H](Cc1ccccc1)C(=O)N[C@H](CCCCN)C(=O)N[C@H](CCCCN)C(N)=O)C(C)C)[C@@H](C)CC` [C10:0-A2(dK), C10:0-IdKQVdKdKLFdKdK-NH2] (Decanoyl-I[dK]QV[dK][dK]LF[dK][dK]-NH2): the “MIC Average Bacteria Gram (−)” value in the data set on Gram (−) bacteria (average over Gram (−) strains) is recorded as 12.1 µM (≈ 17.1 µg/mL). Moreover, the “TI Bacteria Gram (−), HC50/MIC average” value with Gram (−) bacteria (setting [2]) came to 33.1. Also, the “MIC Average Bacteria Gram (+)” value against Gram (+) bacteria (average over Gram (+) strains) is above 90.6 µM. The “TI Bacteria Gram (+), HC50/MIC average” value with Gram (+) bacteria (setting [2]) is below 4.4. The MIC was 22.6 µM (≈ 31.9 µg/mL) with E. coli ATCC 35218; above 90.6 µM against S. aureus ATCC 25923; 181.2 µM (≈ 256 µg/mL) against C. tropicalis DBFIQ 3; above 90.6 µM in the data set with E. faecalis ATCC 29212; above 90.6 µM in [1]; 90.6 µM (≈ 128 µg/mL) against C. albicans PEEC 2. The compound further gave an MIC with P. aeruginosa ATCC 27853 of 1.6 µM (≈ 2.26 µg/mL). For the same compound, the “retained inhibition activity against S. aureus strain ATCC 25923” value in the data set on trypsin is 80%. For the same compound, the “HC50 ± SD” value in the data set with Human erythrocytes is listed as above 400 µM. Moreover, in the data set on chymotrypsin (after 3 h of treatment), the retained antimicrobial activity is given as 75%. Also, the residual antimicrobial activity result in the data set on chymotrypsin (after more than 3 h of treatment, in words) is given as “total loss of activity”. For the same compound, in the data set on Yeast (24 h), the “MIC Average Yeast” value stood at 135.9 µM (≈ 192 µg/mL). Besides, the “TI Yeast, HC50/MIC average” value in the data set on Yeast (setting [2]) is recorded as 2.9. Moreover, the IC50 in the data set on HeLa cells is above 400 µM.
